Assay results: US10828301B2, “2,4-pyrimidinediamine compounds and their uses” (Rigel Pharmaceuticals, Inc, priority 2002, dated 2020)
pIC50: −log10 of the molar value. Blank lines part the entries; values can stand above or below the molecule they belong to.

How the values were obtained:
[1] = molecular target: FcγRI receptor-mediated degranulation; test: FcγRI-mediated degranulation (activation with anti-human IgG Fab fragment); details: cells not primed with IgE, activated with rabbit anti-human IgG Fab fragment
[2] = system: cultured human mast cells (CHMC); test: CHMC low cell density IgE activation: tryptase and LTC4 assays; assay type: cell-based; details: Homo sapiens, Mast cell, Low Density CHMC, anti-IgE activation
Procedure, shortened: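 Cultured human mast cells at low density (1000-1500 per well) rested 1 h at 37° C, then stimulated with anti-IgE for 30 min at 37° C. Supernatant tryptase measured with fluorogenic substrate (30 min, room temperature); LTC4 quantified by ELISA on diluted supernatant.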

B-cell line BJAB = test: BJAB (B-cell) toxicity, light scatter; assay type: cell-based; details: Homo sapiens; BJAB B-cells, flow cytometric light scatter; read-out: Toxicity BJAB Light Scat.
Method: The B-cell line BJAB was cultured in log phase in RPMI1640+10% heat-inactivated fetal bovine serum, lx L-glutamine, lx penicillin, lx […] and 1× beta-mercaptoethanol at 37° C., 5% CO2. First, BJABs were harvested, spun and resuspended in culture medium to a concentration of 7.7×10^5 cells/mL. 65 uL cells were mixed with 65 uL compound, in duplicate and in the presence of 0.1% DMSO in a V-bottomed 96-well tissue culture plate. Cells were incubated with compound at various dilutions at 37° C., 5% CO2. Toxicity was assessed by flow cytometric analysis of cellular light scatter.

[3] = system: cultured human mast cells (CHMC); test: CHMC low cell density ionomycin activation: tryptase assay; assay type: cell-based; details: Homo sapiens, Mast cell, Low Density CHMC, ionomycin activation
Jurkat cells = test: Jurkat (T-cell) toxicity, light scatter; assay type: cell-based; details: Homo sapiens, 18-24 hr, flow cytometric light scatter, read-out: Toxicity Jurkat Light Scat.
Method: Dilute Jurkat cells to 2×10^5 cells/ml in complete RPMI (10% heat-inactivated fetal bovine serum) media and incubate at 37° C., 5% CO2 for 18 hours. Add 65 ul cells at 7.7×10^5 cells/ml to a 96-well V-bottom plate (TC-treated, Costar) containing 65 ul 2× compound (final vehicle concentration is 0.5% DMSO, 1.5% MeOH). Mix, incubate plates for 18-24 hr at 37° C., 5% CO2. Toxicity was assessed by flow cytometric analysis of cellular light scatter

[4] = system: ionophore-induced degranulation of mast and/or basophil cells; test: Ionophore (ionomycin or A23187)-induced degranulation counter screen; assay type: cell-based; details: Mus musculus; high density BMMC, ionomycin activation, hexosaminidase release; read-out: BMMC Ionomycin Hexos. IC50
From the text: In addition to the FcεRI or FcγRI degranulation pathways discussed above, degranulation of mast and/or basophil cells can be induced by other agents. For example, ionomycin, a calcium ionophore that bypasses the early FcεRI or FcγRI signal transduction machinery of the cell, directly induces a calcium flux that triggers degranulation. Referring again to FIG. 2, activated PLCγ initiates pathways that lead to, among other things, calcium ion mobilization and subsequent degranulation. As illustrated, this Ca^2+ mobilization is triggered late in the FcεRI signal transduction pathway. […] Other ionophores that induce degranulation in this manner include A23187. The ability of granulation-inducing ionophores such as ionomycin to bypass the early stages of the FcεRI and/or FcγRI signaling cascades may be used as a counter screen to identify active compounds of the invention that specifically exert their degranulation-inhibitory activity by blocking or inhibiting the early FcεRI or FcγRI signaling cascades, as discussed above.
Assays suitable for determining the IC50 of ionophore-induced degranulation include any of the previously-described degranulation assays, with the modification that the cells are stimulated or activated with a degranulation-inducing calcium ionophore such as ionomycin or A23187 (A.G. Scientific, San Diego, Calif.) instead of anti-IgE antibodies or an IgE-specific allergen. Specific assays for assessing the ability of a particular 2,4-pyrimidinediamine compound of the invention to inhibit ionophore-induced degranulation are provided in the Examples section.

[5] = system: bone marrow derived mast cells (BMMC); test: BMMC high cell density IgE activation: degranulation (hexosiminidase, histamine), leukotriene (LTC4) and cytokine (TNFalpha, IL-6) assays; assay type: cell-based; details: Mus musculus, anti-IgE activation, hexosaminidase release, read-out: BMMC anti-IgE hexos IC50
[6] = system: basophils in whole human peripheral blood; test: Basophil IgE activation: histamine release assay; assay type: cell-based; details: Homo sapiens, anti-IgE activation
Method: The basophil activation assay was carried out using whole human peripheral blood from donors allergic to dust mites with the majority of the red blood cells removed by dextran sedimentation. Human peripheral blood was mixed 1:1 with 3% dextran T500 and RBCs were allowed to settle for 20-25 min. The upper fraction was diluted with 3 volumes of D-PBS and cells were spun down for 10 min at 1500 rpm, RT. Supernatant was aspirated and cells were washed in an equal volume MT-buffer. Finally, cells were resuspended in MT-buffer containing 0.5% DMSO in the original blood volume. 80 uL cells were mixed with 20 uL compound in the presence of 0.5% DMSO, in triplicate, in a V-bottom 96-well tissue culture plate. A dose range of 8 compound concentrations was tested resulting in a 10-point dose response curve including maximum (stimulated) and minimum (unstimulated) response. […] The cells were stimulated for 30 minutes at 37° C., 5% CO2. The plate was spun for 10 min at 1500 rpm at room temperature and 80 uL the supernatant was harvested for histamine content analysis using the histamine ELISA kit supplied by Immunotech. The ELISA was performed according to supplier's instructions.

[7] = system: basophils in whole human peripheral blood; test: Basophil ionomycin activation: histamine release assay; assay type: cell-based
Method: Assays for ionomycin-induced basophil cell degranulation were carried out as described for the Basophil IgE or Dustmite Activation Assay (Section 6.4.6, supra), with the exception that following incubation with compound, cells were stimulated with 20 μl of 2 μM ionomycin.

[8] = system: IgE-induced degranulation of tissue mast cells; test: Mouse model of passive cutaneous anaphylaxis (PCA); assay type: in vivo; details: for inhibition of the PCA response: oral route in a PEG-based formulation, data not shown
Method: This model provides a direct measure of IgE-induced degranulation of tissue mast cells. In this model, IgE primed animals are exposed to an allergen challenge, and the change in permeability of dermal vasculature that results from histamine release from mast cells is measured by change in the amount of dye leakage into surrounding tissue. Inhibition of mediator release by compounds that modulate mast cell degranulation is easily measured by extracting the dye from the tissue.
In the PCA assay mice are passively sensitized by intradermal injection with anti-dinitrophenol (DNP) IgE antibodies (Day −1). At predetermined times animals are treated with the test agent (Day 0). The modulatory effect of the agent on cutaneous mast cell degranulation is measured following intravenous injection of DNP conjugated to human serum albumin (HSA-DNP), together with Evans blue dye. The resulting cross-linking of the IgE receptor and subsequent mast cell degranulation-induced increase in vascular permeability is determined by measuring the amount of dye extravasation into the tissue. Dye is extracted from the tissue by formamide, and the absorbance of this extract is read at 620 nm.

[9] = LTC4 readout, read-out: CHMC anti-IgE LTC4
[10] = hexosaminidase readout, read-out: CHMC anti-IgE Hexos.
[11] = hexosaminidase readout, read-out: CHMC Ionomycin Hexos.

Structure (SMILES): CN(C)CCOC(c1ccccc1)c1ccccc1 [diphenhydramine, reference compound]
- inhibition of the PCA response / FcεR-mediated vascular leakage (in words) ([8]; mouse, in vivo): inhibit the PCA response

Structure (SMILES): CNC(=O)COc1cccc(Nc2ncc(F)c(Nc3ccc4cc[nH]c4c3)n2)c1 [Compound R926745, 5-Fluoro-N4-[(1H)-indol-6-yl]-N2-[3-(N-methylamino)carbonylmethyleneoxyphenyl]-2,4-pyrimidinediamine]
- inhibition of the PCA response [8]: able to inhibit the PCA response

Structure (SMILES): CNC(=O)COc1cccc(Nc2ncc(F)c(Nc3ccc4c(n3)NC(=O)C(C)(C)O4)n2)c1 [Compound R940347, N4-[(2,2-Dimethyl-4H-5-pyrido[1,4]oxazin-3-one)-6-yl]-5-fluoro-N2-[3-(methylaminocarbonylmethyleneoxy)phenyl]-2,4-pyrimidinediamine]
- inhibition of FcγRI-mediated degranulation [1]: inhibit FcγRI-mediated degranulation

Structure (SMILES): Cc1cc(Nc2ncc(F)c(Nc3ccc4c(c3)NC(=O)C(F)(F)O4)n2)cc(Cl)c1O [Compound R926971]
- inhibition of FcγRI-mediated degranulation [1]: inhibit FcγRI-mediated degranulation

Structure (SMILES): CCOc1ccc(Nc2nc(Nc3ccc(OC)c(OC)c3)ncc2F)cc1 [Compound R926108, N2-(3,4-Dimethoxyphenyl)-N4-(4-ethoxyphenyl)-5-fluoro-2,4-pyrimidinediamine]
- pIC50 [2, 9]: 6.12
- pIC50 [2, 10]: 6.10
- pIC50 (B-cell line BJAB): < 5.00
- pIC50 [3, 11]: 5.19
- pIC50 (Jurkat cells): < 5.00
- pIC50 [4]: < 5.00
- pIC50 [5]: 6.05
- pIC50 [6]: 6.02
- pIC50 ([7]; Homo sapiens): < 5.00

More lines, main results first:

- inhibition of FcγRI-mediated degranulation [1]: inhibit FcγRI-mediated degranulation
Structure (SMILES): CNC(=O)COc1cccc(Nc2ncc(F)c(Nc3ccc4c(c3)NC(=O)C(F)(F)O4)n2)c1 [Compound R921303, N4-[(2,2-Difluoro-4H-benzo[1,4]oxazin-3-one)-6-yl]-5-fluoro-N2-[3-(methylaminocarbonylmethyleneoxy)phenyl]-2,4-pyrimidinediamine]

- inhibition of FcγRI-mediated degranulation [1]: inhibit FcγRI-mediated degranulation
Structure (SMILES): CNC(=O)COc1cccc(Nc2ncc(F)c(Nc3ccc(OC(F)(F)F)c(Cl)c3)n2)c1 [Compound R920410, N4-(3-Chloro-4-trifluoromethoxyphenyl)-5-fluoro-N2-[3-(N-methylamino)carbonylmethyleneoxyphenyl]-2,4-pyrimidinediamine]

- inhibition of FcγRI-mediated degranulation [1]: inhibit FcγRI-mediated degranulation
Structure (SMILES): O=C1Nc2cc(Nc3ncc(F)c(Nc4ccc5c(c4)NC(=O)C(F)(F)O5)n3)ccc2OC1(F)F [Compound R940352, N2,N4-[(2,2-Difluoro-4H-benzo[1,4]oxazin-3-one)-6-yl]-5-fluoro-2,4-pyrimidinediamine]

- pIC50 [2, 9]: 5.85
- pIC50 [2, 10]: 5.92
- pIC50 ([2]; tryptase readout, read-out: CHMC anti-IgE Tryptase): 5.97
- pIC50 [3, 11]: < 5.00
- pIC50 ([3]; tryptase readout, read-out: CHMC Ionomycin Tryptase): < 5.00
- pIC50 [5]: 6.00
- pIC50 [6]: 6.52
- pIC50 ([7]; Homo sapiens): < 5.00
Structure (SMILES): COc1ccc(Nc2ncc(F)c(Nc3ccc(OC)c(OC)c3)n2)cc1OC [Compound R926110, N2,N4-Bis(3,4-dimethoxyphenyl)-5-fluoro-2,4-pyrimidinediamine]
- pIC50 (B-cell line BJAB): < 5.00
- pIC50 (Jurkat cells): < 5.00
- pIC50 [4]: 5.35

- pIC50 [7]: < 5.00
Structure (SMILES): CNC(=O)COc1cccc(Nc2ncc(F)c(Nc3ccc4c(c3)OCCO4)n2)c1 [Compound R926495, N4-(3,4-Ethylenedioxyphenyl)-5-fluoro-N2-[3-(N-methylamino)carbonylmethyleneoxyphenyl]-2,4-pyrimidinediamine]
- inhibition of the PCA response [8]: able to inhibit the PCA response

- pIC50 [2, 9]: 6.10
- pIC50 [5]: 6.22
- pIC50 [6]: 6.43
- pIC50 ([7]; Homo sapiens): < 5.00
Structure (SMILES): Oc1cccc(Nc2ncc(F)c(Nc3ccc4c(c3)OCCO4)n2)c1 [Compound R926210, N4-(3,4-Ethylenedioxyphenyl)-5-fluoro-N2-(3-hydroxyphenyl)-2,4-pyrimidinediamine]
- pIC50 (B-cell line BJAB): < 5.00
- pIC50 (Jurkat cells): < 5.00
- pIC50 [4]: < 5.00

- pIC50 [7]: < 5.00
Structure (SMILES): CNC(=O)COc1cccc(Nc2ncc(F)c(Nc3cccc(O)c3)n2)c1 [Compound R926508, 5-Fluoro-N4-(3-hydroxyphenyl)-N2-[3-(N-methylamino)carbonylmethyleneoxyphenyl]-2,4-pyrimidinediamine]
- inhibition of the PCA response [8]: able to inhibit the PCA response
